The results in this text go back to patent US20100234381A1, “BIOMARKERS AND METHODS FOR DETERMINING SENSITIVITY TO VASCULAR ENDOTHELIAL GROWTH FACTOR RECEPTOR-2 MODULATORS” (Bristol-Myers Squibb Company, priority 2007, published 2010).

Assay [1] deals with FGF2-stimulated cancer cell lines. Nature of the assay: FGF2-stimulated tumor cell proliferation, panel of cancer cell lines. Format: cell-based. The conditions noted are these: panel of 16 cell lines; FGF2 2.5 ng/ml; read-out: IC50, FGF2-induced tumor cell proliferation in vitro. Here is the method:
[…], GEO, L2987, 786-0, A549, A498, Du145, PANC-1, ACHN, HT1197, CALU6, SKOV3, 769-[…], HCT166 and UMUC3. […] Gene expression profiling was performed on RNA samples from tumor cell lines using AFFYMETRIX® GeneChip System.

Assay [2] deals with ovarian cancer cell line A2870. Nature of the assay: VEGF-induced proliferation of ovarian cancer cell line A2870. It counts as cell-based. The note with it: data not shown. The method, then: (§1) Cell proliferation was determined by a modified MTS assay with […] 96® Aqueous One Solution Reagent (Promega, Madison, Wis.). A2780 ovarian cancer cells, MIAPAC-2 pancreatic cancer cells, or GEO colon cancer cells were seeded on 96-well flat-bottomed tissue culture plates (Becton Dickinson, San Jose, Calif.) at a concentration of 3×10^3 cells/well in RPMI 1640 with 1% fetal bovine serum at 37° C. in 5% carbon dioxide/95% air in the presence of 100 units/ml penicillin, 100 μg/ml streptomycin and allowed to adhere to the plate overnight. Then the cells were incubated in the presence of each concentration of 0 (control), 0.3, 0.6, 1.25, 2.5, 5, 10 ng/ml of FGF2 or VEGF for another 72 hours at 37° C. in a humidified atmosphere of 5% CO2 in air. After treatment, 20 μl of […] 96® Aqueous One Solution Reagent was dropped into each well of plates. After 180 minutes incubation, the optical densities (OD) of these samples were directly measured using SPECTRAMAX® plus (Molecular Device, California) and reference wavelength of 490 nm. The OD of control samples was regarded as 100. Each condition was performed with 4 wells and experiment was repeated twice.

Assay [3] concerns FGF2 growth factor gene expression. Briefly: FGF2 gene expression, AFFYMETRIX human arrays.
The subject of assay [4] is A2780 ovarian cancer cells. Briefly: FGF2-induced proliferation of A2780 ovarian cancer cells (modified MTS assay). The note with it: A2780 ovarian cancer cells. It counts as cell-based. Here is the method: as §1
Background: Tetrazolium assays rely on reduction of a dye to a coloured formazan, in cell work by metabolically active cells.

Assay [5] concerns VEGF gene expression. Nature of the assay: VEGF gene expression, AFFYMETRIX human arrays.
For assay [6], the system named is pancreatic cancer cell line MIAPAC-2. Briefly: VEGF-induced proliferation of pancreatic cancer cell line MIAPAC-2. Format: cell-based. The note with it: data not shown. The method, then:
as §1

The subject of assay [7] is MIAPAC-2 pancreatic cancer cells. Nature of the assay: FGF2-induced proliferation of MIAPAC-2 pancreatic cancer cells (modified MTS assay). Format: cell-based. The conditions noted are these: MIAPAC-2 pancreatic cancer cells. The method, then:
as §1

Regarding `CCN(CC)CCNC(=O)c1c(C)[nH]c(/C=C2\C(=O)Nc3ccc(F)cc32)c1C` [sunitinib, reference compound], the IC50 in assay [1] is ~10 µM.
Regarding bevacizumab [reference compound], the “effect on VEGF-induced cellular proliferation” value in assay [2] and in assay [6] was “did not show significant sensitivity” throughout. Besides, the “modulation of FGF2 growth factor gene expression levels” value in assay [3] is on record as “did not”. Moreover, the “effect on FGF2-induced cellular proliferation” value in assay [4] and in assay [7] was “did not show significant sensitivity” each time. Further, the “modulation of VEGF gene expression levels” value in assay [5] was “modulated VEGF gene expression levels”.
